Results published in patent publication US20080051419A1, “AMINE DERIVATIVES USEFUL AS ANTICANCER AGENTS” (PFIZER INC., priority 2006, published 2008).
pIC50: −log10 of the molar value. Where two headings read alike, the source gives them in different places.

Molecular target: T1, Akt1 (Homo sapiens, UniProt P31749, S473D)
T1 construct: The version of Akt used in these studies lacks the pleckstrin homology (PH) domain
Assay: Akt1 kinase assay, fluorescence polarization (IMAP)
Type: biochemical
Settings: for pIC50: Table 1, concentration bins, read-out: Concentration Range at which exemplary compounds of formula I inhibit Akt kinase activity; for IC50: read-out: Avg Akt kinase, μM (50% inhibition)
Experimental: The Akt1 kinase assay is based on the measurement of fluorescence polarization using IMAP technology (Molecular Devices Corporation #R8062). Two microliters of inhibitor compounds diluted to a concentration of 10 millimolar are added to column 2 of a polypropylene 96-well plate containing 98 microliters of 100% DMSO; the wells in columns 3-12 contain 60 microliters of 100% DMSO. The various test compounds are serially diluted 1:3 across the plate by pipetting 30 microliters of compounds into wells containing 60 microliters of 100% DMSO. Column 12 receives DMSO only and is used as a negative control for inhibition. The components of the wells are mixed and 15 microliters of each well are transferred to another 96-well plate already containing 60 microliters of reaction buffer (RB: 10 mM Tris-HCl, pH 7.5, 10 mM MgCl2, 0.1 mM EGTA, 0.01% Triton-X100 (Sigma #X-100), freshly added 1 mM DTT). After mixing, the […] reactions are assembled. First, five microliters of the above compound/reaction buffer mixture is transferred to the bottom of a 96-well black polystyrene reaction plate (Costar, #3694). Next, ten microliters of a solution containing 4 micromolar ATP and 40 nanomolar fluorescent-labeled Crosstide (Tamara-labeled […] peptide) are added. Then, 5 microliters (1.5 nanograms) of Akt protein in RB are added. The version of Akt used in these studies lacks the pleckstrin homology (PH) domain, and contains an aspartic acid residue in place of a serine residue in position 473 within the Akt1 hydrophobic motif. The Akt1 protein contains a polyhistidine tag at the amino terminus and is prephosphorylated on threonine at position 308 in order to activate latent kinase activity. Once the reaction components and inhibitors are assembled, the plates are gently tapped, covered with foil, and then incubated at ambient temperature for 30 minutes. IMAP beads (Molecular Devices) are then added (60 microliters of a 1:400 dilution of beads in RB). Plates are read on a Victor Plate Reader with the following settings: CW lamp filter: 544 nm, emission filter: 615 nm. Control values from wells lacking Akt protein are subtracted from the gross readings, and IC50 values are calculated using XLDA.

[1] = average Akt kinase activity (IC50)

T1 sequence (P31749 118-480 S473D limits assumed, species assumed): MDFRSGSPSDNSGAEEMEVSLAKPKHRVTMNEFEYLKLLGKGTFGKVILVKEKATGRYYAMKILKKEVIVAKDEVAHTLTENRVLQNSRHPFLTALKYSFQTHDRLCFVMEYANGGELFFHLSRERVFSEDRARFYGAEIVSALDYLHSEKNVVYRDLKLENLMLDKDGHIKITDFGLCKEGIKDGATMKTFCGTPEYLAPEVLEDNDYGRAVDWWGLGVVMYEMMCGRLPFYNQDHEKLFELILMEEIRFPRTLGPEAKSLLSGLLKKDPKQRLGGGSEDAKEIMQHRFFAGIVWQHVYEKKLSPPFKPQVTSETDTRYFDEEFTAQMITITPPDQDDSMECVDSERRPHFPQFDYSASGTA

SMILES | pIC50 | IC50 (Table 3) [µM] | IC50 (Table 4) [µM] | IC50 [1] [µM] | IC50 [µM]
Cc1c[nH]c2ncnc(N3CCC(N)(CNc4cccc(-c5cnco5)c4)C3)c12 (centres unmarked) [Example 44, 1-(5-methyl-7H-pyrrolo[2,3-d]pyrimidin-4-yl)-3-({[3-(1,3-oxazol-5-yl)phenyl]amino}methyl)pyrrolidin-3-amine] | 5.00 to 7.00 | 0.837 |  |  | 
N[C@]1(CNC(=O)c2c(F)cccc2Cl)CCN(c2ncnc3[nH]cc(Cl)c23)C1 [Example 113, N-{[(3S)-3-amino-1-(5-chloro-7H-pyrrolo[2,3-d]pyrimidin-4-yl)pyrrolidin-3-yl]methyl}-2-chloro-6-fluorobenzamide] | 7.00 to 8.00 |  |  | 0.0332 | 
Cc1c[nH]c2ncnc(N3CCC(N)(CNc4ccc(CC(N)=O)cc4)C3)c12 (centres unmarked) [Example 16, 2-[4-({[3-amino-1-(5-methyl-7H-pyrrolo[2,3-d]pyrimidin-4-yl)pyrrolidin-3-yl]methyl}amino)phenyl]-acetamide] | 7.00 to 8.00 | 0.0143 |  |  | 
CNC1(CNC(=O)c2ccccc2)CCN(c2ncnc3[nH]cc(Cl)c23)C1 (centres unmarked) [Example 194] | 7.00 to 8.00 |  |  |  | 0.0897
Cc1c[nH]c2ncnc(N3CCC(N)(CN(C)C(=O)c4ccc(Cl)cc4)C3)c12 (centres unmarked) [Example 196, N-((3-amino-1-(5-methyl-7H-pyrrolo[2,3-d]pyrimidin-4-yl)pyrrolidin-3-yl)methyl)-4-chloro-N-methylbenzamide] | 5.00 to 7.00 |  |  |  | 0.123
Cc1c[nH]c2ncnc(N3CCC(N)(CCc4cccc(C(F)(F)F)c4)C3)c12 (centres unmarked) [Example 67, 1-(5-methyl-7H-pyrrolo[2,3-d]pyrimidin-4-yl)-3-{2-[3-(trifluoromethyl) -phenyl]ethyl}pyrrolidin-3-amine] | 5.00 to 7.00 |  |  | 0.126 | 
Cc1c[nH]c2ncnc(N3CCC(N)(CN4CCc5ccccc54)C3)c12 (centres unmarked) [Example 51, 3-(2,3-dihydro-1H-indol-1-ylmethyl)-1-(5-methyl-7H-pyrrolo[2,3-d]pyrimidin-4-yl)pyrrolidin-3-amine] | 7.00 to 8.00 | 0.0362 |  |  | 
CCc1c[nH]c2ncnc(N3CCC(N)(COc4cccc(C)c4)C3)c12 (centres unmarked) [Example 65, 1-(5-ethyl-7H-pyrrolo[2,3-d]pyrimidin-4-yl)-3-[(3-methylphenoxy)methyl]pyrrolidin-3-amine] | 7.00 to 8.00 |  | 0.0948 |  | 
Cc1c[nH]c2ncnc(N3CCC(N)(CN(CCN(C)C)C(=O)Nc4ccccc4)C3)c12 (centres unmarked) [Example 195, 1-{[3-amino-1-(5-methyl-7H-pyrrolo[2,3-d]pyrimidin-4-yl)pyrrolidin-3-yl]methyl}-1-[2-(dimethylamino)ethyl]-3-phenylurea] | 5.00 to 7.00 |  |  |  | 0.141
Cc1c[nH]c2ncnc(N3CCC(N)(CNCC4CC4)C3)c12 (centres unmarked) [Example 54, 3-{[(cyclopropylmethyl)amino]methyl}-1-(5-methyl-7H-pyrrolo[2,3-d]pyrimidin-4-yl)pyrrolidin-3-amine] | 5.00 to 7.00 | 0.739 |  |  | 
Cc1c[nH]c2ncnc(N3CCC(N)(CN(C)Cc4ccc(Cl)cc4)C3)c12 (centres unmarked) [Example 45, 3-{[(4-chlorobenzyl)(methyl)-amino]methyl}-1-(5-methyl-7H-pyrrolo[2,3-d]pyrimidin-4-yl)pyrrolidin-3-amine] | 5.00 to 7.00 | 0.144 |  |  | 
COC(=O)c1ccccc1NCC1(N)CCN(c2ncnc3[nH]nc(C)c23)C1 (centres unmarked) [Example 5, 2-{[3-Amino-1-(3-methyl-1H-pyrazolo[3,4-d]pyrimidin-4-yl)-pyrrolidin-3-ylmethyl]-amino}-benzoic acid methyl ester] | 5.00 to 7.00 | 0.394 |  |  | 
Cc1c[nH]c2ncnc(N3CC[C@](N)(CNC(=O)c4c(F)cccc4Cl)C3)c12 [Example 116] | 7.00 to 8.00 |  |  | 0.0681 | 
Cc1c[nH]c2ncnc(N3CCC(N)(CNc4ccccc4C(=O)NCc4ccccc4)C3)c12 (centres unmarked) [Example 27, 2-({[3-amino-1-(5-methyl-7H-pyrrolo[2,3-d]pyrimidin-4-yl)pyrrolidin-3-yl]methyl}amimo)-N-benzylbenzamide] | 5.00 to 7.00 | 5.29 |  |  | 
Cc1c[nH]c2ncnc(N3CCC(N)(CN(CCN(C)C)Cc4ccccc4)C3)c12 (centres unmarked) [Example 47, N-{[3-amino-1-(5-methyl-7H-pyrrolo[2,3-d]pyrimidin-4-yl)pyrrolidin-3-yl]methyl}-N-benzyl-N′,N′-dimethylethane-1,2-diamine] | 5.00 to 7.00 | 0.172 |  |  | 

Continued, values first:

pIC50 | IC50 (Table 3) [µM] | IC50 (Table 4) [µM] | IC50 [1] [µM] | IC50 [µM] | SMILES
7.00 to 8.00 |  | 0.0215 |  |  | CCc1c[nH]c2ncnc(N3CCC(N)(COc4cccc(C(F)(F)F)c4)C3)c12 (centres unmarked) [Example 64]
7.00 to 8.00 |  |  | 0.0114 |  | Cc1c[nH]c2ncnc(N3CC[C@](N)(CNC(=O)c4ccc(Cl)cc4)C3)c12 [Example 74, (S)—N-((3-amino-1-(5-methyl-7H-pyrrolo[2,3-d]pyrimidin-4-yl)pyrrolidin-3-yl)methyl)-4-chlorobenzamide]
8.60 to 9.60 |  |  | 0.000683 |  | CCc1c[nH]c2ncnc(N3CC[C@](N)(CNC(=O)c4ccccc4F)C3)c12 [Example 98, N-{[(3S)-3-amino-1-(5-ethyl-7H-pyrrolo[2,3-d]pyrimidin-4-yl)pyrrolidin-3-yl]methyl}-2-fluorobenzamide]
8.00 to 8.60 |  |  | 0.00758 |  | Cc1c[nH]c2ncnc(N3CC[C@](N)(CNC(=O)c4cccc(F)c4F)C3)c12 [Example 87]
8.00 to 8.60 | 0.00553 |  |  |  | Cc1c[nH]c2ncnc(N3CCC(N)(CNc4cccc(Cl)c4F)C3)c12 (centres unmarked) [Example 21, 3-{[(3-chloro-2-fluorophenyl)amino]methyl}-1-(5-methyl-7H-pyrrolo[2,3-d]pyrimidin-4-yl)pyrrolidin-3-amine]
8.60 to 9.60 |  |  | 0.0025 |  | N[C@]1(CNC(=O)c2cc(F)ccc2F)CCN(c2ncnc3[nH]cc(Cl)c23)C1 [Example 106, N-{[(3S)-3-amino-1-(5-chloro-7H-pyrrolo[2,3-d]pyrimidin-4-yl)pyrrolidin-3-yl]methyl}-2,5-difluorobenzamide]
8.00 to 8.60 | 0.003 |  |  |  | Cc1ccn2ncnc(N3CCC(N)(CNc4cccc(Cl)c4Cl)C3)c12 (centres unmarked) [Example 10, 3-{[(2,3-dichlorophenyl)amino]methyl}-1-(5-methylpyrrolo[2,1-f][1,2,4]triazin-4-yl)pyrrolidin-3-amine]
8.60 to 9.60 |  |  | 0.00191 |  | CCc1c[nH]c2ncnc(N3CC[C@](N)(CNC(=O)c4ccc(F)cc4)C3)c12 [Example 93]
8.60 to 9.60 |  |  | 0.00163 |  | N[C@]1(CNC(=O)c2ccc(F)cc2F)CCN(c2ncnc3[nH]cc(Cl)c23)C1 [Example 82, N-{[(3S)-3-amino-1-(5-chloro-7H-pyrrolo[2,3-d]pyrimidin-4-yl)pyrrolidin-3-yl]methyl}-2,4-difluorobenzamide]
8.00 to 8.60 | 0.01 |  |  |  | COC(=O)c1ccccc1NCC1(N)CCN(c2ncnc3[nH]cc(C)c23)C1 (centres unmarked) [Example 19]
8.00 to 8.60 |  |  | 0.00526 |  | Cc1c[nH]c2ncnc(N3CC[C@](N)(CNC(=O)c4cccc(F)c4Cl)C3)c12 [Example 123, N-{[(3S)-3-amino-1-(5-methyl-7H-pyrrolo[2,3-d]pyrimidin-4-yl)pyrrolidin-3-yl]methyl}-2-chloro-3-fluorobenzamide]
8.00 to 8.60 |  |  | 0.00906 |  | N[C@]1(CNC(=O)c2c(F)cccc2F)CCN(c2ncnc3[nH]cc(Cl)c23)C1 [Example 130]
8.00 to 8.60 |  |  | 0.00278 |  | CCc1c[nH]c2ncnc(N3CC[C@](N)(CNC(=O)c4cccc(F)c4F)C3)c12 [Example 89]
